Key:
[1] = test system: Arabidopsis (wild-type, Colombia); experiment: Arabidopsis germination assay; format: in vivo
Experimental: Arabidopsis mutants such as det2 (de-etiolation) and cpd (constitutive photomorphogenesis and dwarfism) show strong dwarfism manifested as curled leaves in deep green. Although this phenotype disappears when brassinolide is administered externally, other plant hormones such as IAA and gibberellin are ineffective. Based on these findings, the compound of the present invention (Compound 1 obtained in Example 1) was used in Arabidopsis (wild-type, Colombia) germination assay. Screening was performed under a light condition with criteria whether or not the compound generates abnormality 1) which is morphologically similar to mutants in the brassinosteroid biosynthesis and 2) which disappears when brassinolide is administered. It was also examined whether or not the morphological change induced by the test compound was restored to the morphology of wild-type by addition of braassinolide under a dark condition.
(§1) The Arabidopsis germination assay was performed as follows. Seeds of wild-type and det were treated at a low temperature (2° C.) for 2 days, and the surfaces were sterilized with 1% NaOCl solution for 2 minutes and washed seven times with sterilized distilled water. The seeds were sown on 1% agar solid medium containing 0.5×Murashige and Skoog (1962) salt and 1.5% (w/v) sucrose in a plastic plate in the presence or absence of the test compound. The wild-type plant and det2 plant were grown in a growth chamber for 16 hours under a light condition (240 mE/m2s) and for 8 hours under a dark condition (25° C.). For the screening experiment, the plate was sealed with Parafilm (American National Can Co., Ltd., Chicago, Ill., USA). For the restoration experiment that required a longer experimental period, the seeds were sown on 1% agar solid medium containing 0.5×Murashige and Skoog (1962) salt and 1.5% (w/v) sucrose in Agripot (Kirin Brewery Co., Ltd.). The plants were grown in a growth chamber for 16 hours under a light condition (240 mE/m2s) and for 8 hours under a dark condition (28° C.).

[2] = test system: dwarfed rice plant (Oryza sativa cv. Tan-ginbozu); experiment: rice leaf lamina inclination bioassay, explantation method; format: in vivo; settings: RMB-61 1 μg/plant; FIG. 1
[3] = test system: dwarfed rice plant (Oryza sativa cv. Tan-ginbozu); experiment: rice leaf lamina inclination bioassay, whole plant method; format: in vivo
Experimental: In the figure, “Angle” indicates an inclination angle; and the results are indicated with “Cont” for control (no treatment); “CT” for cathasterone (100 ng); “TE” for teasterone (100 ng); and “BL” for brassinolide (0.1 ng) wherein each dose per plant is shown. Generally, the biological activity of brassinosteroids is often evaluated by the in vitro rice leaf lamina inclination bioassay (explantation method: Wada et al., Plant Cell Physiol., 22, pp.323-325, 1981; Takatsuto, J. Chromat. A., 658, pp.3-15, 1994) which is highly sensitive and reliable. However, this conventional method is not suitable for analyzing the mechanism of action of brassinosteroid biosynthesis inhibitors. Recently, Fujioka et al. reported a method (whole plant method) in which the rice leaf lamina inclination bioassay is improved as an […] system. This method reflects the actual biosynthesis process of brassinosteroids by administration of various precursors of brassinolide. The inhibitory action of the compound of the present invention against the brassinolide biosynthesis was evaluated by the explantation method and the whole plant method. The rice leaf lamina inclination bioassay was performed essentially according to the procedure reported by Fujioka et al. as mentioned above by using a dwarfed rice plant (Oryza sativa cv. Tan-ginbozu). Seeds were immersed in water for 2 days at 28° C., and germinated seeds were subjected to selection of those having a uniform coleoptile length (about 1 to 2 mm). Five germinated seeds were planted on 30 ml of 1% agar medium contained in a glass jar (inner diameter: 26 mm×60 mm), and incubated under the aforementioned conditions for 3 days. Each test compound for the bioassay was dissolved in ethanol and placed on a lamina in an amount of […] by using a microsyringe. After the plants were incubated under the same growth conditions for 2 days, the external angle between the leaf lamina and its sheath was measured by using an annular protractor. Thirty plants in total (6 jars) were used for each treatment.

[4] = test system: rice (Oryza sativa cv. Koshihikari); experiment: rice growth bioassay (rice elongation test); format: in vivo; settings: for growth of the rice plant (length of shoots): in vivo
Experimental: Further, rice growth bioassay was performed as follows. Seeds of rice (Oryza sativa cv. Koshihikari) were immersed in tap water for 2 hours, and then 10 seeds were immersed in 2 ml of 10 mM sodium acetate buffer (pH 5.4) containing 10 mM CaCl2 filled in a sterilized 15-ml test tube in the presence or absence of a test compound. The plants were grown in a growth chamber for 16 hours under a light condition (240 mE/m2s) and for 8 hours under a dark condition (25° C.). The plants were collected and the length of shoots was measured.

Arabidopsis = Arabidopsis assay with addition of brassinolide precursors; format: in vivo
Experimental: as §1
In order to confirm the action of RMB-61 also in the Arabidopsis assay, the seeds were grown with addition of the aforementioned brassinolide precursors, and recovery of the growth retardation caused by the RMB-61 treatment was observed. […] If RMB-61 is a specific inhibitor against the oxidation of cathasterone, it is expected that the morphological traits of the treated plants have similarities to the phenotypes of the mutants such as cpd (Szekeres et al., Cell, 85, pp.171-182, 1996). It is further expected that the action of RMB-61 will disappear when typhasterol, castasterone or brassinolide is administered, and in addition, the cpd phenotypes caused by brassinosteroids will disappear.

endogenous castasterone = settings: side effect; cited from earlier work
vessel elements = settings: cited from earlier work

Row | SMILES | induction of dwarfism ([1]; at 10^−6 M, among the test compounds) | concentration at which shapes of the plants significantly resemble det2 mutant ([1]; dose-effect test) | dwarfism / morphological change on simultaneous administration of brassinolide ([1]; with brassinolide) | inhibition of the action of brassinolide (inclination angle) [2] | effect on the inclination action by teasterone, typhasterol and castasterone ([3]; RMB-61 5 μg/plant, FIG. 2) | effect on the action of cathasterone (inclination angle) ([3]; RMB-61 5 μg/plant, cathasterone 100 ng, FIG. 2) | response of the rice plant to brassinosteroid after adding teasterone or brassinolide ([3]; rice plant in which the effect of cathasterone was negated by RMB-61) | growth of the rice plant (length of shoots) [4] | effect on the gibberellin treatment ([4]; with gibberellin) | greening effect on administration of brassinosteroids (Arabidopsis; brassinosteroids except for cathasterone) | greening of plants (Arabidopsis; under weak light) | growth retardation in the presence of cathasterone (Arabidopsis; with cathasterone) | action of RMB-61 (growth retardation) in presence of brassinosteroids (Arabidopsis; with teasterone, 3-deoxoteasterone, typhasterol, castasterone or brassinolide) | amount of endogenous castasterone (endogenous castasterone) | differentiation of vessel elements induced by brassinolide (vessel elements)
1 | CC(O)(c1ccccc1)C(Cc1ccc(Cl)cc1)n1cncn1 (centres unmarked) [Compound 1, 4-(4-chlorophenyl)-2-phenyl-3-(1,2,4-triazoyl)butan-2-ol] | most potent induction of dwarfism | ≥ 10^−5 M | negated | absolutely no inhibition | failed to offset | inhibited the action of cathasterone | restored | no effect | completely failed to effect the gibberellin treatment | eliminated | promoted greening | maintained | strongly inhibited the action of RMB-61 | – | –
2 | CC(C)(C)C(O)/C(=C\c1ccc(Cl)cc1)n1cncn1 (centres unmarked) [Uniconazol] | – | – | – | – | – | – | – | strong growth retardation action | – | – | – | – | – | slight reduction | inhibits differentiation of vessel elements
3 | CC(C)(C)[C@@H](O)[C@@H](Cc1ccc(Cl)cc1)n1cncn1 [paclobutrazol, reference compound] | – | – | – | – | – | – | – | elongation retardation action | – | – | – | – | – | – | –

Source: patent publication US6388089B1, “Brassinosteroid biosynthesis inhibitors” (Riken, priority 1998, dated 2002)
